Values of other authors in patent US20070134244A1, “Combination treatment for pathologic ocular angiogenesis” (Alcon, Inc., priority 2005, published 2007).

Test system: xenotransplant models of colon cancer
Conditions: xenotransplant models of colon cancer in nude (athymic) mice; Presta et al. 1997

bevacizumab
metastatic disease progression: inhibition of metastatic disease progression
microvascular growth: reduction of microvascular growth
